Laboratory results: PubChem BioAssay AID330 (DTP/NCI, 2004)
Where “and” joins values, the source holds several entries; their conditions need not be identical. Equal entries are not always repeated. Inconclusive results and toxic doses are left out. Rule for the calls: active = survival T/C of 150% or more; inactive = T/C below 125% in these data.

Test system: P388 leukemia ip, CD2F1 mice, survival T/C
Assay: NCI In Vivo Anticancer Drug Screen. Data for tumor model P388 Leukemia (intraperitoneal) in CD2F1 (CDF1) mice
Details: endpoint: median survival time, higher = longer survival
Method in brief: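 Mice carrying the transplanted tumor received test compound or vehicle. Survival was recorded in each group, and the value is the treated-group measurement divided by that of the vehicle-treated control group.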

[1] = dose: 50.0 mg/kg/injection, schedule: Q04DX003 (ip), vehicle: saline with Tween-80
[2] = dose: 100.0 mg/kg/injection, schedule: Q04DX003 (ip), vehicle: saline with Tween-80
[3] = dose: 60.0 mg/kg/injection, schedule: Q01DX005 (ip), vehicle: Klucel (hydroxypropylcellulose) (HPC)
[4] = dose: 120.0 mg/kg/injection, schedule: Q01DX005 (ip), vehicle: Klucel (hydroxypropylcellulose) (HPC)
[5] = dose: 50.0 mg/kg/injection, schedule: Q01DX009 (ip), vehicle: saline with Tween-80
[6] = dose: 100.0 mg/kg/injection, schedule: Q01DX009 (ip), vehicle: saline with Tween-80
[7] = dose: 60.0 mg/kg/injection, schedule: Q01DX005 (ip), vehicle: saline
[8] = dose: 120.0 mg/kg/injection, schedule: Q01DX005 (ip), vehicle: saline
[9] = dose: 240.0 mg/kg/injection, schedule: Q01DX005 (ip), vehicle: saline
[10] = dose: 50.0 mg/kg/injection, schedule: Q01DX005 (ip), vehicle: Klucel (hydroxypropylcellulose) (HPC)
[11] = dose: 100.0 mg/kg/injection, schedule: Q01DX005 (ip), vehicle: Klucel (hydroxypropylcellulose) (HPC)
[12] = dose: 200.0 mg/kg/injection, schedule: Q01DX005 (ip), vehicle: Klucel (hydroxypropylcellulose) (HPC)
[13] = dose: 200.0 mg/kg/injection, schedule: Q01DX009 (ip), vehicle: saline with Tween-80
[14] = dose: 50.0 mg/kg/injection, schedule: Q01DX005 (ip), vehicle: saline with Tween-80
[15] = dose: 100.0 mg/kg/injection, schedule: Q01DX005 (ip), vehicle: saline with Tween-80
[16] = dose: 200.0 mg/kg/injection, schedule: Q01DX005 (ip), vehicle: saline with Tween-80

Measured: T/C

c1cc2c3c(c1)nc(CCc1nc4cccc5c4n1CCC5)n3CCC2
inactive: dose: 25.0 mg/kg/injection, schedule: Q04DX003 (ip), vehicle: saline with Tween-80 109 % of control | [1] 86 % of control | [2] 86 % of control

C[C@@H]1C(=O)O[C@H]2[C@H]1CC[C@@]1(C)C[C@@H](I)C(=O)[C@@H](C)[C@H]21
inactive: [3] 92 % of control | [4] 108 % of control

ClC1=C(Cl)C2(Cl)C3C4CC(C5OC45)C3C1(Cl)C2(Cl)Cl (configuration not stated)
inactive: dose: 3.13 mg/kg/injection, schedule: Q01DX009 (ip), vehicle: saline with Tween-80 104 % of control and 97 % of control | dose: 6.25 mg/kg/injection, schedule: Q01DX009 (ip), vehicle: saline with Tween-80 90 % of control and 97 % of control | dose: 12.5 mg/kg/injection, schedule: Q01DX009 (ip), vehicle: saline with Tween-80 86 % of control

CCCCC1(CCCCCCCCC(O)CC(=O)OCC)OCCO1 (configuration not stated)
inactive: dose: 100.0 mg/kg/injection, schedule: Q04DX002 (ip), vehicle: Klucel (hydroxypropylcellulose) (HPC) 104 % of control | dose: 200.0 mg/kg/injection, schedule: Q04DX002 (ip), vehicle: Klucel (hydroxypropylcellulose) (HPC) 100 % of control | dose: 400.0 mg/kg/injection, schedule: Q04DX002 (ip), vehicle: Klucel (hydroxypropylcellulose) (HPC) 96 % of control

COc1cc2c(c3c1OCO3)-c1ccc(OC)c(=O)cc1C(NC(C)=O)CC2 (configuration not stated)
inactive: dose: 1.25 mg/kg/injection, schedule: Q01DX009 (ip), vehicle: Klucel (hydroxypropylcellulose) (HPC) 108 % of control | dose: 2.5 mg/kg/injection, schedule: Q01DX009 (ip), vehicle: Klucel (hydroxypropylcellulose) (HPC) 104 % of control | dose: 5.0 mg/kg/injection, schedule: Q01DX009 (ip), vehicle: Klucel (hydroxypropylcellulose) (HPC) 111 % of control | dose: 10.0 mg/kg/injection, schedule: Q01DX009 (ip), vehicle: Klucel (hydroxypropylcellulose) (HPC) 116 % of control | dose: 20.0 mg/kg/injection, schedule: Q01DX009 (ip), vehicle: Klucel (hydroxypropylcellulose) (HPC) 118 % of control

CCCCCCCCCCCCCCCc1cc(O)c(CC=C(C)C)c(=O)o1 (tested in a mixture with another compound)
inactive: dose: 82.5 mg/kg/injection, schedule: Q01DX005 (ip), vehicle: Klucel (hydroxypropylcellulose) (HPC) 98 % of control | dose: 165.0 mg/kg/injection, schedule: Q01DX005 (ip), vehicle: Klucel (hydroxypropylcellulose) (HPC) 97 % of control | dose: 330.0 mg/kg/injection, schedule: Q01DX005 (ip), vehicle: Klucel (hydroxypropylcellulose) (HPC) 105 % of control

CCCCC1SC2=NCCCN2C1(O)c1ccc(Cl)cc1 (configuration not stated)
inactive: [5] 105 % of control | [6] 106 % of control

COC(=O)C1CC(C)C1(OC)OC (configuration not stated)
inactive: [7] 106 % of control | [8] 107 % of control | [9] 101 % of control

COc1cc2c(c3oc4c(O)cccc4c(=O)c13)CC(C(C)(O)CO)O2 (configuration not stated)
inactive: dose: 3.5 mg/kg/injection, schedule: Q01DX005 (ip), vehicle: Klucel (hydroxypropylcellulose) (HPC) 105 % of control | dose: 7.0 mg/kg/injection, schedule: Q01DX005 (ip), vehicle: Klucel (hydroxypropylcellulose) (HPC) 96 % of control | dose: 14.0 mg/kg/injection, schedule: Q01DX005 (ip), vehicle: Klucel (hydroxypropylcellulose) (HPC) 96 % of control | dose: 28.0 mg/kg/injection, schedule: Q01DX005 (ip), vehicle: Klucel (hydroxypropylcellulose) (HPC) 92 % of control

NC(=O)CCC(NC(=O)OCC1c2ccccc2-c2ccccc21)C(=O)O (configuration not stated)
inactive: [10] 104 % of control | [11] 103 % of control | [12] 104 % of control

CC1Cc2ccc(OCCN(C)C)cc2C1O (configuration not stated)
inactive: dose: 50.0 mg/kg/injection, schedule: Q01DX005 (ip), vehicle: saline 104 % of control | dose: 100.0 mg/kg/injection, schedule: Q01DX005 (ip), vehicle: saline 102 % of control | dose: 200.0 mg/kg/injection, schedule: Q01DX005 (ip), vehicle: saline 104 % of control

O=S(=O)(SC(S(=O)(=O)c1ccccc1)S(=O)(=O)c1ccccc1)c1ccccc1
inactive: dose: 200.0 mg/kg/injection, schedule: Q01DX009 (ip), vehicle: Klucel (hydroxypropylcellulose) (HPC) 123 % of control | dose: 400.0 mg/kg/injection, schedule: Q01DX009 (ip), vehicle: Klucel (hydroxypropylcellulose) (HPC) 123 % of control

NC(=O)[C@@H]1CCCN1C(=O)c1cccnc1
inactive: [7] 98 % of control | [8] 97 % of control | [9] 103 % of control

COc1ccc2c(c1)CSCC2O (configuration not stated)
inactive: dose: 50.0 mg/kg/injection, schedule: Q01DX009 (ip), vehicle: other 95 % of control | dose: 100.0 mg/kg/injection, schedule: Q01DX009 (ip), vehicle: other 100 % of control | dose: 200.0 mg/kg/injection, schedule: Q01DX009 (ip), vehicle: other 96 % of control

Nc1nc(N)c(N=Nc2ccccc2)c(=O)[nH]1
inactive: [5] 100 % of control | [1] 86 % of control | [6] 90 % of control | [2] 95 % of control | [13] 115 % of control | dose: 200.0 mg/kg/injection, schedule: Q04DX003 (ip), vehicle: saline with Tween-80 95 % of control

CC(=O)Nc1nc(C)c(S(=O)(=O)Cl)s1
inactive: dose: 50.0 mg/kg/injection, schedule: Q01DX009 (ip), vehicle: saline 102 % of control | dose: 100.0 mg/kg/injection, schedule: Q01DX009 (ip), vehicle: saline 98 % of control | dose: 200.0 mg/kg/injection, schedule: Q01DX009 (ip), vehicle: saline 102 % of control | dose: 400.0 mg/kg/injection, schedule: Q01DX009 (ip), vehicle: saline 94 % of control

COc1nc2c(nnn2C2OC(CO)C(O)C(O)C2O)c(=O)[nH]1 (configuration not stated)
inactive: [7] 97 % of control | [8] 99 % of control | [9] 100 % of control

O=C1NC(=O)c2ccc3c4ccc5c6c(ccc(c7ccc1c2c73)c64)C(=O)N(c1ccccc1)C5=O
inactive: dose: 6.25 mg/kg/injection, schedule: Q01DX005 (ip), vehicle: Klucel (hydroxypropylcellulose) (HPC) 99 % of control | dose: 12.5 mg/kg/injection, schedule: Q01DX005 (ip), vehicle: Klucel (hydroxypropylcellulose) (HPC) 101 % of control and 94 % of control | dose: 25.0 mg/kg/injection, schedule: Q01DX005 (ip), vehicle: Klucel (hydroxypropylcellulose) (HPC) 107 % of control | [10] 93 % of control | [11] 95 % of control | [12] 88 % of control

CC(=O)NC1CCC(C2CCCCC2)CC1C1CCCCC1 (configuration not stated)
inactive: [14] 107 % of control | [15] 98 % of control | [16] 102 % of control

CCCCOCN(COCCCC)CC(C)(C)C
inactive: [5] 107 % of control | [6] 105 % of control | [13] 109 % of control

CC(C)(C)C1CS1 (configuration not stated)
inactive: [14] 107 % of control | [15] 107 % of control | [16] 117 % of control

O=C1C2=C(Nc3cc(Cl)ccc3N2)OC1c1ccc2c(c1)OCO2 (configuration not stated)
inactive: [3] 101 % of control | [4] 98 % of control | dose: 240.0 mg/kg/injection, schedule: Q01DX005 (ip), vehicle: Klucel (hydroxypropylcellulose) (HPC) 101 % of control

CO/N=C(\C(O)C(C)O)C(OC)C1Cc2cc3cc(OC4CC(OC(C)=O)C(OC5CC(O)C(OC)C(C)O5)C(C)O4)cc(O)c3c(O)c2C(=O)C1OC1CC(OC2CC(OC3CC(C)(O)C(OC(=O)C(C)C)C(C)O3)C(O)C(C)O2)C(O)C(C)O1 (configuration not stated)
active: dose: 1.0 mg/kg/injection, schedule: Q01DX005 (ip), vehicle: water 160 % of control | dose: 2.0 mg/kg/injection, schedule: Q01DX005 (ip), vehicle: water 163 % of control
inactive: dose: 0.13 mg/kg/injection, schedule: Q01DX005 (ip), vehicle: water 116 % of control | dose: 0.25 mg/kg/injection, schedule: Q01DX005 (ip), vehicle: water 116 % of control and 124 % of control

O=C(Cc1ccc(Cl)cc1)NCCc1ccccc1
inactive: [14] 102 % of control | [15] 102 % of control | [16] 99 % of control

O=C1C(Cl)=C(N2CCOCC2)C(=O)C(Cl)=C1N1CCOCC1
inactive: dose: 50.0 mg/kg/injection, schedule: Q01DX005 (ip), vehicle: suspension in saline 99 % of control | dose: 100.0 mg/kg/injection, schedule: Q01DX005 (ip), vehicle: suspension in saline 104 % of control
